From patent US20030039661A1, “Methods, compositions and kits for preserving antigenicity” (priority 2001, published 2003)
Blank lines part the entries; values can stand above or below the compound they belong to. Peptide text beside a SMILES is read from it. * marks the point of attachment. Cbz = O=C(OCc1ccccc1)*; CH2F = FC*

What was measured:
granulocytes [1] = assay: Granulocyte survival, hypodiploid nuclei by propidium iodide flow cytometry (isolated granulocytes in culture); type: cell-based; details: FIG. 6; for IC50: isolated granulocytes cultured at 37° C., read-out: IC50 for granulocyte survival (hypodiploid DNA)
Protocol: Neutrophil Culture Conditions:
The culture media was as follows: (RPMI 1640; 10% FBS; 10 mM Hepes; 0.2 mM L-glutamine; 25 U/ml penicillin; and […] streptomycin).
Purified neutrophil maintenance was performed under the following conditions: (5×10^6 cells/ml in above culture media; Polystyrene round-bottom 96-well plates; 250 μl/well; and 37° C., 5% CO2/95% air humidified incubator) (Liles et al., Blood 119 (1995) 3181-3188).
Analysis of Hypodiploid Nuclei by Flow Cytometry:
(50 μg/ml propidium iodide (Sigma catalog#P4170); 0.1% Triton X-100; and 0.1 sodium citrate).
Neutrophils were pelleted at 4° C. and the supernate aspirated.
Neutrophils were resuspended in hypotonic fluorochrome solution at a density of 5×10^6 cells/ml. Propidium iodide fluorescence of individual nuclei was evaluated in FL2 and measured on a logarithmic scale while gating on physical parameters in forward and side scatter to exlude cell debris.
At least 10,000 events per sample were collected and the results were evaluated relative to a non-apoptotic neutrophil population. (Liles et al., Blood 119 (1995) 3181-3188).
The present invention provides methods to enhance the ex vivo survival of neutrophils/granulocytes. To establish the ability of compounds to preserve granulocytes in culture, compounds were tested in a number of in vitro assays. One common model to test for effects on granulocyte survival involves separating granulocytes from fresh whole blood, culturing the cells at 37° C. and testing cells for nuclear hypodiploidy at 24 hour intervals (as described in Example 110). The presence of hypodiploid DNA is a measure of apoptosis, and is assessed using a propidium iodide stain via flow cytometry. Compounds of the present invention were incubated with the granulocytes in culture, their effects on granulocyte survival measured, and an IC50 calculated.

T-lymphocyte cell line = details: cited from earlier work
granulocytes [2] = assay: Respiratory burst in isolated neutrophils measured by chemiluminescence (opsonized zymosan); type: cell-based; details: FIG. 7
Protocol: Respiratory Burst in Isolated Neutrophils Measured by Chemiluminescence
Whole blood anticoagulated with Acid Citrate Dextrose (ACD) with a ratio of 1:5 ACD to blood was collected (150 ml).
Neutrophils were isolated as described above.
Opsonized zymosan was prepared by suspending 125 mg zymosan particles in 25 ml pooled human serum (5 mg/ml) and incubating them for 20 minutes at 37° C. Centrifuge the suspension and resuspend the particles in 7 ml of PBS (18 mg/ml) and stored on ice until use (vortex prior to pipetting).
50 ml of a 250 μM solution of Lucigenin (MW 510.5) was prepared by dissolving 6.4 mg of the solid in 50 ml of PBS-G (+Ca, Mg). 10 μl of PBS-G (+Ca, Mg) to the wells in a white 96 well plate.
50 μl of the 250 μM Lucigenin solution was added to the wells in a white 96 well plate.
Cell preparations were obtained from cell culture (concentration at time zero=5.0×10^6 cells/ml) with PBS-G (+Ca, Mg).
20 μl of the neutrophil suspension was suspended to the appropriate wells and the plate was incubated at 37° C. for three minutes. 10 μl of the opsonized zymosan was added to the wells.
The plate was read on the luminometer (Labsystems Luminoskan, Needham Heights, Mass.) for 14 min. at 37° C. in the kinetic mode and record results using the software DeltaSoft.
The ability to undergo the respiratory burst is another measure of granulocyte viability. The respiratory burst is a physiological response of granulocytes to foreign stimuli such as bacteria. In this example, the method for inducing the respiratory burst utilized opsonized bacterial zymosan. The respiratory burst was measured via chemiluminescence.

mammary epithelial cells = details: in the absence of extracellular matrix; cited from earlier work
motoneurons = details: in vitro and in vivo; cited from earlier work
[3] = system: granulocytes in whole blood; assay: Whole blood assay: survival of granulocytes in whole blood by hypodiploid analysis; type: cell-based
Protocol: The following protocol was followed:
200 μl blood sample/2.8 ml 1× lysis solution in a 15 ml polypropylene conical tube.
Add 20 μl/sample anti-CD32-FITC. Incubate 30 minutes on ice in the dark.
Add 3 ml/sample ice-cold 95% EtOH dropwise while vortexing gently.
Resuspend each sample in 50 μl 5 mg/ml RN'ase. Transfer sample to 900 μl/sample.
50 μg/ml Propidium Iodide in 12×75 mm Falcon polystyrene tubes.
Analyze samples by flow cytometry (argon laser) for forward and side scatter and fluorescence.
Survival of granulocytes in whole blood was measured by hypodiploid analysis in a similar fashion to isolated granulocytes via flow cytometry. ICE/ced-3 inhibitors of the present invention maintained survival of granulocytes in whole blood for 96 hours at room temperature as indicated in the table below: […]

[4] = after granulocyte culture for 72 hours
[5] = granulocyte culture for 48 hours

Compound: O=C(O)CC(NC(=O)[C@@H]1Cc2cccc3c2N1C(=O)[C@@H](NC(=O)OCc1ccccc1)CC3)C(=O)CF (some centres unmarked) [Example 106]
IC50 (granulocytes [1]): < 5 µM

Compound: CC(=O)N[C@H]1CCc2cccc3c2N(C1=O)[C@H](C(=O)N[C@H]1CC(=O)OC1O)C3 (some centres unmarked) [Example 94]
melting point: 210 to 215 °C (dec.)

Compound: CC(=O)N[C@@H](CC(=O)O)C(=O)N[C@@H](CCC(=O)O)C(=O)N[C@H](C(=O)N[C@H](C=O)CC(=O)O)C(C)C [acetyl-DEVD-aldehyde]
anti-Fas induced apoptosis (T-lymphocyte cell line): inhibited

Compound: COC(=O)C[C@H](NC(=O)[C@H](C)NC(=O)[C@@H](NC(=O)OCc1ccccc1)C(C)C)C(=O)CF [zVADfmk, reference compound] (Cbz-Val-Ala-Asp(OMe)-CH2F)
effect on improving granulocyte survival (granulocytes [1]; at 48 hours): weak effect | maintenance of the respiratory burst (granulocytes [2]; time not stated): did not maintain

Compound: O=C(O)C[C@H](NC(=O)[C@@H]1Cc2cccc3c2N1C(=O)[C@@H](NC(=O)OCc1ccccc1)CC3)C(=O)COP(=O)(c1ccccc1)c1ccccc1 [Example 109, 3-[(2S-cis)-[5-benzyloxycarbonylamino-1,2,3,4,5,6,7-hexahydro-4-oxoazepino[3,2,1-hi]indole-2-carbonyl]amino]-5-(diphenylphosphinyl)oxy-4-oxo-pentanoic Acid]
melting point: 109 to 111 °C (dec.)

Compound: CC(C)(C)OC(=O)N[C@@H](CC(=O)OCc1ccccc1)C(=O)CCl [Boc-D-(benzyl) chloromethylketone]
cell death of mammary epithelial cells (mammary epithelial cells): prevented

Compound: acetyl-AD-aldehyde
death of motoneurons (motoneurons): blocked

Compound: CC(=O)N[C@@H](Cc1ccc(O)cc1)C(=O)N[C@H](C(=O)N[C@@H](C)C(=O)N[C@@H](CC(=O)O)C(=O)CCl)C(C)C [acetyl-YVAD-chloromethylketone]
death of motoneurons (motoneurons): blocked

Compound: Cc1c(C(=O)N[C@H](C(=O)NC(CC(=O)O)C(=O)COC(=O)c2c(Cl)cccc2Cl)C(C)C)n(C)c2ccccc12 (some centres unmarked) [Example 70, N-[N-(1,3-dimethyl-indole-2-carbonyl)-valinyl]-3-amino-5-(2,6-dichlorobenzoyl)oxy-4-oxo-pentanoic Acid]
IC50 (granulocytes [1]): < 5 µM | maintenance of the respiratory burst (granulocytes [2]; [4]): partially maintained | maintenance of the respiratory burst (granulocytes [2]; [5]): substantially maintained | Percentage of diploid granulocytes in whole blood ([3]; 96 hours at room temperature): 89% | Percentage of diploid granulocytes in whole blood ([3]; time zero): 96%

Compound: Cc1c(C(=O)N[C@H](C(=O)NC(CC(=O)O)C(=O)CF)C(C)C)n(C)c2ccccc12 (some centres unmarked) [Example 43, N-[(1.3-dimethylindole-2-carbonyl)valinyl]-3-amino-4-oxo-5-fluoropentanoic Acid]
maintenance of the respiratory burst (granulocytes [2]; [4]): partially maintained | maintenance of the respiratory burst (granulocytes [2]; [5]): substantially maintained | Percentage of diploid granulocytes in whole blood ([3]; 96 hours at room temperature): 91% | Percentage of diploid granulocytes in whole blood ([3]; time zero): 96%

The remaining lines, values ahead:

melting point: 145 to 160 °C (dec.)
Compound: O=C(O)CCC(=O)N[C@H]1CCc2cccc3c2N(C1=O)[C@H](C(=O)N[C@H]1CC(=O)OC1O)C3 (some centres unmarked) [Example 85]

melting point: 160 to 175 °C (dec.)
Compound: CC(=O)N[C@@H](CC(=O)O)C(=O)N[C@H]1CCc2cccc3c2N(C1=O)[C@H](C(=O)N[C@H]1CC(=O)OC1O)C3 (some centres unmarked) [Example 82]

melting point: 140 to 144 °C (dec.)
Compound: O=C(O)C[C@H](NC(=O)OCc1ccccc1)C(=O)N[C@H]1CCc2cccc3c2N(C1=O)[C@H](C(=O)N[C@H]1CC(=O)OC1O)C3 (some centres unmarked) [Example 88]

melting point: 120 to 123 °C (dec.)
Compound: O=C1C[C@H](NC(=O)C2CCc3cccc4c3N2C(=O)[C@@H](NC(=O)OCc2ccccc2)CC4)C(O)O1 (some centres unmarked) [Example 103]

melting point: 78 to 81 °C
Compound: O=C(CCc1ccccc1)N[C@H]1CCc2cccc3c2N(C1=O)[C@H](C(=O)N[C@H]1CC(=O)OC1O)C3 (some centres unmarked) [Example 91]

melting point: 101 to 104 °C
Compound: O=C1C[C@H](NC(=O)[C@@H]2Cc3cccc4c3N2C(=O)[C@@H](NC(=O)OCc2ccccc2)CC4)C(O)O1 (some centres unmarked) [Example 78]

melting point: 204 to 205 °C (dec.)
Compound: O=C1C[C@H](NC(=O)[C@@H]2Cc3cccc4c3N2C(=O)[C@@H](NC(=O)c2ccccc2)CC4)C(O)O1 (some centres unmarked) [Example 100]

melting point: 202 to 203 °C (dec.)
Compound: O=C1C[C@H](NC(=O)[C@@H]2Cc3cccc4c3N2C(=O)[C@@H](NC(=O)c2cccc3ccccc23)CC4)C(O)O1 (some centres unmarked) [Example 97]
